Key:
Assay in all cases: KINOMEscan competition binding
Settings in all cases: compound 10.0 µM
MST4 (human) = MST4 (human) (UniProt Q9P289)
STK33 (human) = STK33 (human) (UniProt Q9BYT3)
MAP4K2 (human) = MAP4K2 (human) (UniProt Q12851)
MAPK10 (human) = MAPK10 (human) (UniProt P53779)
MYLK3 (human) = MYLK3 (human) (UniProt Q32MK0)
CSNK1G2 (human) = CSNK1G2 (human) (UniProt P78368)
LIMK1 (human) = LIMK1 (human) (UniProt P53667)
STK39 (human) = STK39 (human) (UniProt Q9UEW8)
PIP4K2B (human) = PIP4K2B (human) (UniProt P78356)
Sequence of PIP4K2B (human) (P78356 whole entry, looked up): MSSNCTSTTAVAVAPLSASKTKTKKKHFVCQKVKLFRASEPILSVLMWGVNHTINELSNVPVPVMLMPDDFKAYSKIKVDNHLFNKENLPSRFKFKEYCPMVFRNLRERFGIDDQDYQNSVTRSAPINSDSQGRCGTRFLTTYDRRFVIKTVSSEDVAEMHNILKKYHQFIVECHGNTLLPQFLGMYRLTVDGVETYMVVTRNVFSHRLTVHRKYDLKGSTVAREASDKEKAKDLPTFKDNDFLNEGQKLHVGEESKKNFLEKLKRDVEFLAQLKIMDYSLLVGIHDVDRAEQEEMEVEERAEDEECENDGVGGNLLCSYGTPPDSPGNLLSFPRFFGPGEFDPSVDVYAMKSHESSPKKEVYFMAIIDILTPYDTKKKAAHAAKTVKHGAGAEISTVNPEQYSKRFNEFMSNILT

BRSK2 (human) = BRSK2 (human) (UniProt Q8IWQ3)
[1] = system: MET (human), P08581 [M1250T]
CSF1R (human) = CSF1R (human) (UniProt P07333)
MLTK (human) = MLTK (human) (UniProt Q9NYL2)
MAP2K3 (human) = MAP2K3 (human) (UniProt P46734)
HIPK4 (human) = HIPK4 (human) (UniProt Q8NE63)
PRPF4B (human) = PRPF4B (human) (UniProt Q13523)
TBK1 (human) = TBK1 (human) (UniProt Q9UHD2)
CDK17 (human) = CDK17 (human) (UniProt Q00537)
FES (human) = FES (human) (UniProt P07332)
MAP3K9 (human) = MAP3K9 (human) (UniProt P80192)
Sequence of MAP3K9 (human) (P80192 whole entry, looked up): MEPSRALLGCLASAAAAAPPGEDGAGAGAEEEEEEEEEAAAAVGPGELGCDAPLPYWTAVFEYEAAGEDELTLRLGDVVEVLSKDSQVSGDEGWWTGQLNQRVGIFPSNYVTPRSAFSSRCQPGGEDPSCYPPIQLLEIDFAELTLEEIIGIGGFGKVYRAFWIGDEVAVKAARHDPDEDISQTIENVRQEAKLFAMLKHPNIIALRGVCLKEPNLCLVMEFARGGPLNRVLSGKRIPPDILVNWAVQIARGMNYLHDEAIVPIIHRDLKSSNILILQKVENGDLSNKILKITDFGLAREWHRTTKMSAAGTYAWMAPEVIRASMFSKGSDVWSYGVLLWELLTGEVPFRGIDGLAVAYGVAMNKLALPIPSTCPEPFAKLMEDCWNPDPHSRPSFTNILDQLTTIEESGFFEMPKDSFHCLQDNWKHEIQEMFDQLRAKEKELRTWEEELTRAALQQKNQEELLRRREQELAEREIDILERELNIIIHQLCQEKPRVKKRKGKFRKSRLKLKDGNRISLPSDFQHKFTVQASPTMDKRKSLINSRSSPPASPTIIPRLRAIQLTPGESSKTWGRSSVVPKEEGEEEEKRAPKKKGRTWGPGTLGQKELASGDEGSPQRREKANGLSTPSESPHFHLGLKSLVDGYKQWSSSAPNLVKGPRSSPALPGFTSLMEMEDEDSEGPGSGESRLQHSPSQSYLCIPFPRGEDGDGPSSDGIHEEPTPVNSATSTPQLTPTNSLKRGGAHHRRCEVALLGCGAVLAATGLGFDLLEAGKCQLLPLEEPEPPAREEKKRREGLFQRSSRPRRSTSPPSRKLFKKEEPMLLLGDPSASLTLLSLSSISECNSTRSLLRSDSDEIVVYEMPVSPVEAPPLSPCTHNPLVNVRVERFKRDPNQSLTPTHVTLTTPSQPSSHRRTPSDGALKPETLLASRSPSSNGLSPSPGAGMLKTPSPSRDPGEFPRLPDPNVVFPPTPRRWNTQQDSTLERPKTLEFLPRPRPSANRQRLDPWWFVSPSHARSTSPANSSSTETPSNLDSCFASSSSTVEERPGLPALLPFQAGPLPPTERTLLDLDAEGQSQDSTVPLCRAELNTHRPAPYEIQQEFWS

FLT4 (human) = FLT4 (human) (UniProt P35916)
SIK1 (human) = SIK1 (human) (UniProt P57059)
Sequence of SIK1 (human) (P57059 whole entry, looked up): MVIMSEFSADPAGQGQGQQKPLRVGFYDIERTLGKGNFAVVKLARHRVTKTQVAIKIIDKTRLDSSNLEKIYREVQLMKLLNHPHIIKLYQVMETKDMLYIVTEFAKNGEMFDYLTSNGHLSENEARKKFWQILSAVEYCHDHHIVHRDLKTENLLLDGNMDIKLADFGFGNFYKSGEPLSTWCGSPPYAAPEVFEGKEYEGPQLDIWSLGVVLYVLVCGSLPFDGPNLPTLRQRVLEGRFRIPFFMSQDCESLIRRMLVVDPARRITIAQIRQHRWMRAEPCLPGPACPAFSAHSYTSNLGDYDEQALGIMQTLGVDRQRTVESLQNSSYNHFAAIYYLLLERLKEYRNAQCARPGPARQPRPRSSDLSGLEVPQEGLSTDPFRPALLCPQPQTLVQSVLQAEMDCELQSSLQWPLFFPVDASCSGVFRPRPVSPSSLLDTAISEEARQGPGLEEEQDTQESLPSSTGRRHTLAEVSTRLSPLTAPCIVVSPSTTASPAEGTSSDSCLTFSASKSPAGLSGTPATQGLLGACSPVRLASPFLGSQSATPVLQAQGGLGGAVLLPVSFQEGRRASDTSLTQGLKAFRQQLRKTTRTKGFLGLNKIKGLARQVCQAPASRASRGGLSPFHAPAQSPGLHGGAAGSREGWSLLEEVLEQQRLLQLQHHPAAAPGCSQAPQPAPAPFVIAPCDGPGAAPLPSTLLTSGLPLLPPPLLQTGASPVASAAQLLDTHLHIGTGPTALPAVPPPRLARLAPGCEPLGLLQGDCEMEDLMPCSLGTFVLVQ

GSK3A (human) = GSK3A (human) (UniProt P49840)
MAP4K5 (human) = MAP4K5 (human) (UniProt Q9Y4K4)
NTRK2 (human) = NTRK2 (human) (UniProt Q16620)
FGFR4 (human) = FGFR4 (human) (UniProt P22455)
RET (human) = RET (human) (UniProt P07949)
GRK7 (human) = GRK7 (human) (UniProt Q8WTQ7)
[2] = system: PIK3CA (human), P42336 [H1047L]
MAPK9 (human) = MAPK9 (human) (UniProt P45984)
Sequence of MAPK9 (human) (P45984 whole entry, looked up): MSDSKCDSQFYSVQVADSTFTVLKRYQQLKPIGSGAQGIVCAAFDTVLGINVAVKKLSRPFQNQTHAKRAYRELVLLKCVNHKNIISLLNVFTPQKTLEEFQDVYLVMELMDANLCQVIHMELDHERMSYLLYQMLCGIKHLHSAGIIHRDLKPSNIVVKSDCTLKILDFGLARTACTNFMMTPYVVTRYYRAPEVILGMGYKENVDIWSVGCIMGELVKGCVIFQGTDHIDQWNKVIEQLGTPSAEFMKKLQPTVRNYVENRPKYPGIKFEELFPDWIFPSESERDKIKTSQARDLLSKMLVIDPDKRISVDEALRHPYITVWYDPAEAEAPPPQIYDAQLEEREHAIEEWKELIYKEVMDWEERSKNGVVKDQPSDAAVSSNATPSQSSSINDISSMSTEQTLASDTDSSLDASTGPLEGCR

PAK4 (human) = PAK4 (human) (UniProt O96013)
CDK14 (human) = CDK14 (human) (UniProt O94921)
ERBB2 (human) = ERBB2 (human) (UniProt P04626)
GAK (human) = GAK (human) (UniProt O14976)
PLK3 (human) = PLK3 (human) (UniProt Q9H4B4)
MAP4K1 (human) = MAP4K1 (human) (UniProt Q92918)
Sequence of MAP4K1 (human) (Q92918 whole entry, looked up): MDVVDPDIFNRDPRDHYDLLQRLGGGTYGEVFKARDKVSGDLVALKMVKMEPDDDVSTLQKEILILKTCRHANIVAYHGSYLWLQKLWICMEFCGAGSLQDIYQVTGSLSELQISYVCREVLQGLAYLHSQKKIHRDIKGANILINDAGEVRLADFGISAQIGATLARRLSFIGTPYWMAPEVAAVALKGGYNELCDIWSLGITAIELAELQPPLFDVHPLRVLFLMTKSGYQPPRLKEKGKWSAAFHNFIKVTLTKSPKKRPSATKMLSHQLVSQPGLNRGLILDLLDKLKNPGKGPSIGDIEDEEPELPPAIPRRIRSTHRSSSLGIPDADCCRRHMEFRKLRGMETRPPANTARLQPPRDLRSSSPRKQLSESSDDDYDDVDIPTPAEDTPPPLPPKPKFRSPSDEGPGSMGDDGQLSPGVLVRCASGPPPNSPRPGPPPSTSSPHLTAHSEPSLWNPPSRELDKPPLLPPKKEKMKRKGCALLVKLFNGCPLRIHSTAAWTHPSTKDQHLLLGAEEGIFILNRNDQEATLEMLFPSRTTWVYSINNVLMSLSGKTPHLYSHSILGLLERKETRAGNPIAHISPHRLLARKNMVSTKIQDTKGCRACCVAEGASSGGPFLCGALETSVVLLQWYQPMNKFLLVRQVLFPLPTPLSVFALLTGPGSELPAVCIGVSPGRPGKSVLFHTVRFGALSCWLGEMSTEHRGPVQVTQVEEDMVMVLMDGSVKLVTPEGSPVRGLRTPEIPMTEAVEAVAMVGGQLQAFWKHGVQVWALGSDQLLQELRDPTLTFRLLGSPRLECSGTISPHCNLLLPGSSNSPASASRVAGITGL

DAPK3 (human) = DAPK3 (human) (UniProt O43293)
Sequence of DAPK3 (human) (O43293 whole entry, looked up): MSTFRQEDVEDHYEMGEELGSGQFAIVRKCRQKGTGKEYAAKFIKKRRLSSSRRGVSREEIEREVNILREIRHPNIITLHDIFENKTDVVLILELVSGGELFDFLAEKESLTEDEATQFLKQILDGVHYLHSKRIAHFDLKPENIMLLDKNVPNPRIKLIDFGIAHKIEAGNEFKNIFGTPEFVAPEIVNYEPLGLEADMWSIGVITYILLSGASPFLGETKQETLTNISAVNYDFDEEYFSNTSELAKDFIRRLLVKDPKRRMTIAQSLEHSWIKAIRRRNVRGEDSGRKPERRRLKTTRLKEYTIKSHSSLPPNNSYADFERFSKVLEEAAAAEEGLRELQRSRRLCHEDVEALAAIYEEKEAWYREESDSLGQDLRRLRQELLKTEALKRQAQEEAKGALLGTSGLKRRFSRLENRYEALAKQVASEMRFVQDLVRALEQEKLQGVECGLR

PDGFRA (human) = PDGFRA (human) (UniProt P16234)

Sequence of MYLK3 (human) (Q32MK0 whole entry, looked up): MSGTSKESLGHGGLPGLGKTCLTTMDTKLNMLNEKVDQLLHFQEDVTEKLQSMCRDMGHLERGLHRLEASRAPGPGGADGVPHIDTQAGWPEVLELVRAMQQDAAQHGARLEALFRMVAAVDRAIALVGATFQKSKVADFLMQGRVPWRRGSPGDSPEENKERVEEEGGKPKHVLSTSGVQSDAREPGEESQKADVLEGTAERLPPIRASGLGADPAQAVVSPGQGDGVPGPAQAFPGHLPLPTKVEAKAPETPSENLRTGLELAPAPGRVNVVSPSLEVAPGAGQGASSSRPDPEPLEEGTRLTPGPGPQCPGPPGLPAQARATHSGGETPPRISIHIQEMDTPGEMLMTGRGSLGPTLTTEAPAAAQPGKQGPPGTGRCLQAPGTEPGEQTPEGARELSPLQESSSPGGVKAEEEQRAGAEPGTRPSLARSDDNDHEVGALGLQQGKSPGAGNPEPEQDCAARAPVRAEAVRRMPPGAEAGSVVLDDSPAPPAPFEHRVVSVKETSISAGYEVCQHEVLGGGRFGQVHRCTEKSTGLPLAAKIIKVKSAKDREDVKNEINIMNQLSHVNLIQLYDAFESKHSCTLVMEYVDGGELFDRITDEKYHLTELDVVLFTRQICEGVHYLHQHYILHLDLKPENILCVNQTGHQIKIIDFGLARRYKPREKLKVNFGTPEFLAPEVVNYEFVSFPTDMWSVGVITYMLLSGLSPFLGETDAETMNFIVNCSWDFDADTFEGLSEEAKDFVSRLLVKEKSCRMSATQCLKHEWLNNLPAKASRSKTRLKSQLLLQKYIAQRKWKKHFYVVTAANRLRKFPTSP

## Cc1cn(-c2cc(C(=O)Nc3ccc(C)c(NC(=O)c4ccno4)c3)cc(C(F)(F)F)c2)cn1
MST4 (human)
  kinase still bound, per cent of control: 100%
STK33 (human)
  kinase still bound, per cent of control: 100%
MAP4K2 (human)
  kinase still bound, per cent of control: 100%
MAPK10 (human)
  kinase still bound, per cent of control: 100%
MYLK3 (human)
  kinase still bound, per cent of control: 100%
CSNK1G2 (human)
  kinase still bound, per cent of control: 100%
LIMK1 (human)
  kinase still bound, per cent of control: 100%
STK39 (human)
  kinase still bound, per cent of control: 100%
PIP4K2B (human)
  kinase still bound, per cent of control: 100%
BRSK2 (human)
  kinase still bound, per cent of control: 100%
[1]
  kinase still bound, per cent of control: 100%
CSF1R (human)
  kinase still bound, per cent of control: 0.2%
MLTK (human)
  kinase still bound, per cent of control: 7.8%
MAP2K3 (human)
  kinase still bound, per cent of control: 100%
HIPK4 (human)
  kinase still bound, per cent of control: 100%
PRPF4B (human)
  kinase still bound, per cent of control: 100%
TBK1 (human)
  kinase still bound, per cent of control: 100%
CDK17 (human)
  kinase still bound, per cent of control: 100%
FES (human)
  kinase still bound, per cent of control: 100%
MAP3K9 (human)
  kinase still bound, per cent of control: 100%
FLT4 (human)
  kinase still bound, per cent of control: 100%
SIK1 (human)
  kinase still bound, per cent of control: 100%
GSK3A (human)
  kinase still bound, per cent of control: 100%
MAP4K5 (human)
  kinase still bound, per cent of control: 100%
NTRK2 (human)
  kinase still bound, per cent of control: 100%
FGFR4 (human)
  kinase still bound, per cent of control: 100%
RET (human)
  kinase still bound, per cent of control: 100%
GRK7 (human)
  kinase still bound, per cent of control: 100%
[2]
  kinase still bound, per cent of control: 100%
MAPK9 (human)
  kinase still bound, per cent of control: 100%
PAK4 (human)
  kinase still bound, per cent of control: 100%
CDK14 (human)
  kinase still bound, per cent of control: 100%
ERBB2 (human)
  kinase still bound, per cent of control: 100%
GAK (human)
  kinase still bound, per cent of control: 100%
PLK3 (human)
  kinase still bound, per cent of control: 100%
MAP4K1 (human)
  kinase still bound, per cent of control: 100%
DAPK3 (human)
  kinase still bound, per cent of control: 100%
PDGFRA (human)
  kinase still bound, per cent of control: 1.2%

## COc1cc(C)c(Sc2cnc(NC(=O)c3ccc(CNC(C)C(C)C)cc3)s2)cc1C(=O)N1CCN(C(C)=O)CC1 (stereo not given)
MST4 (human)
  kinase still bound, per cent of control: 100%
STK33 (human)
  kinase still bound, per cent of control: 7%
MAP4K2 (human)
  kinase still bound, per cent of control: 100%
MAPK10 (human)
  kinase still bound, per cent of control: 100%
MYLK3 (human)
  kinase still bound, per cent of control: 100%
CSNK1G2 (human)
  kinase still bound, per cent of control: 100%
LIMK1 (human)
  kinase still bound, per cent of control: 100%
PIP4K2B (human)
  kinase still bound, per cent of control: 100%
BRSK2 (human)
  kinase still bound, per cent of control: 100%
CSF1R (human)
  kinase still bound, per cent of control: 100%
MLTK (human)
  kinase still bound, per cent of control: 100%
MAP2K3 (human)
  kinase still bound, per cent of control: 100%
CDK17 (human)
  kinase still bound, per cent of control: 100%
FES (human)
  kinase still bound, per cent of control: 100%
MAP3K9 (human)
  kinase still bound, per cent of control: 100%
FLT4 (human)
  kinase still bound, per cent of control: 100%
SIK1 (human)
  kinase still bound, per cent of control: 100%
GSK3A (human)
  kinase still bound, per cent of control: 100%
MAP4K5 (human)
  kinase still bound, per cent of control: 100%
NTRK2 (human)
  kinase still bound, per cent of control: 23%
FGFR4 (human)
  kinase still bound, per cent of control: 100%
RET (human)
  kinase still bound, per cent of control: 100%
MAPK9 (human)
  kinase still bound, per cent of control: 100%
PAK4 (human)
  kinase still bound, per cent of control: 100%
CDK14 (human)
  kinase still bound, per cent of control: 100%
ERBB2 (human)
  kinase still bound, per cent of control: 100%
GAK (human)
  kinase still bound, per cent of control: 100%
PLK3 (human)
  kinase still bound, per cent of control: 100%
MAP4K1 (human)
  kinase still bound, per cent of control: 25%
DAPK3 (human)
  kinase still bound, per cent of control: 100%
PDGFRA (human)
  kinase still bound, per cent of control: 100%

## COc1ccc(N(C(=O)Oc2cc(C(=O)Nc3cccc(C(F)(F)F)c3)ccc2C)c2ccnc(Nc3ccc(N4CCN(C)CC4)cc3)n2)c(OC)c1
MST4 (human)
  kinase still bound, per cent of control: 100%
STK33 (human)
  kinase still bound, per cent of control: 100%
MAPK10 (human)
  kinase still bound, per cent of control: 100%
MYLK3 (human)
  kinase still bound, per cent of control: 100%
CSNK1G2 (human)
  kinase still bound, per cent of control: 100%
LIMK1 (human)
  kinase still bound, per cent of control: 2.8%
PIP4K2B (human)
  kinase still bound, per cent of control: 100%
BRSK2 (human)
  kinase still bound, per cent of control: 100%
CSF1R (human)
  kinase still bound, per cent of control: 0.35%
MLTK (human)
  kinase still bound, per cent of control: 2.1%
MAP2K3 (human)
  kinase still bound, per cent of control: 100%
CDK17 (human)
  kinase still bound, per cent of control: 100%
FES (human)
  kinase still bound, per cent of control: 0.85%
MAP3K9 (human)
  kinase still bound, per cent of control: 100%
FLT4 (human)
  kinase still bound, per cent of control: 2%
SIK1 (human)
  kinase still bound, per cent of control: 0.1%
GSK3A (human)
  kinase still bound, per cent of control: 100%
MAP4K5 (human)
  kinase still bound, per cent of control: 1.6%
NTRK2 (human)
  kinase still bound, per cent of control: 24%
FGFR4 (human)
  kinase still bound, per cent of control: 0.4%
RET (human)
  kinase still bound, per cent of control: 0.35%
MAPK9 (human)
  kinase still bound, per cent of control: 19%
PAK4 (human)
  kinase still bound, per cent of control: 100%
CDK14 (human)
  kinase still bound, per cent of control: 100%
ERBB2 (human)
  kinase still bound, per cent of control: 100%
GAK (human)
  kinase still bound, per cent of control: 26%
PLK3 (human)
  kinase still bound, per cent of control: 100%
MAP4K1 (human)
  kinase still bound, per cent of control: 4.6%
DAPK3 (human)
  kinase still bound, per cent of control: 100%
PDGFRA (human)
  kinase still bound, per cent of control: 8.6%

## COc1cc(N2CCC(C(N)=O)CC2)ccc1Nc1nc(N)c(Cl)c(Nc2ccccc2S(=O)(=O)C(C)C)n1
MST4 (human)
  kinase still bound, per cent of control: 100%
STK33 (human)
  kinase still bound, per cent of control: 4.5%
MAP4K2 (human)
  kinase still bound, per cent of control: 100%
MAPK10 (human)
  kinase still bound, per cent of control: 28%
MYLK3 (human)
  kinase still bound, per cent of control: 100%
CSNK1G2 (human)
  kinase still bound, per cent of control: 100%
LIMK1 (human)
  kinase still bound, per cent of control: 100%
PIP4K2B (human)
  kinase still bound, per cent of control: 100%
BRSK2 (human)
  kinase still bound, per cent of control: 100%
CSF1R (human)
  kinase still bound, per cent of control: 100%
MLTK (human)
  kinase still bound, per cent of control: 100%
MAP2K3 (human)
  kinase still bound, per cent of control: 23%
CDK17 (human)
  kinase still bound, per cent of control: 100%
FES (human)
  kinase still bound, per cent of control: 2.3%
MAP3K9 (human)
  kinase still bound, per cent of control: 100%
FLT4 (human)
  kinase still bound, per cent of control: 100%
SIK1 (human)
  kinase still bound, per cent of control: 100%
GSK3A (human)
  kinase still bound, per cent of control: 100%
MAP4K5 (human)
  kinase still bound, per cent of control: 100%
NTRK2 (human)
  kinase still bound, per cent of control: 100%
FGFR4 (human)
  kinase still bound, per cent of control: 100%
RET (human)
  kinase still bound, per cent of control: 100%
MAPK9 (human)
  kinase still bound, per cent of control: 100%
PAK4 (human)
  kinase still bound, per cent of control: 100%
CDK14 (human)
  kinase still bound, per cent of control: 100%
ERBB2 (human)
  kinase still bound, per cent of control: 18%
GAK (human)
  kinase still bound, per cent of control: 2.5%
PLK3 (human)
  kinase still bound, per cent of control: 100%
MAP4K1 (human)
  kinase still bound, per cent of control: 100%
DAPK3 (human)
  kinase still bound, per cent of control: 100%
PDGFRA (human)
  kinase still bound, per cent of control: 100%
